Experiments:
human recombinant HDAC6 = target: T1, human recombinant HDAC6 (Homo sapiens, UniProt Q9UBN7); assay: HDAC enzyme activity test, HDAC6; type: biochemical; details: for Selectivity for HDAC6, HD1/HD6 / IC50: Table 12; for Selectivity for HDAC6, HD1/HD6: ratio HDAC1 IC50 / HDAC6 IC50; for IC50: read-out: Inhibition ability (IC50) HDAC6
T1 construct: purchased Calibiochem Co. (so in the source) 382180
T1 sequence (Q9UBN7 1-1215): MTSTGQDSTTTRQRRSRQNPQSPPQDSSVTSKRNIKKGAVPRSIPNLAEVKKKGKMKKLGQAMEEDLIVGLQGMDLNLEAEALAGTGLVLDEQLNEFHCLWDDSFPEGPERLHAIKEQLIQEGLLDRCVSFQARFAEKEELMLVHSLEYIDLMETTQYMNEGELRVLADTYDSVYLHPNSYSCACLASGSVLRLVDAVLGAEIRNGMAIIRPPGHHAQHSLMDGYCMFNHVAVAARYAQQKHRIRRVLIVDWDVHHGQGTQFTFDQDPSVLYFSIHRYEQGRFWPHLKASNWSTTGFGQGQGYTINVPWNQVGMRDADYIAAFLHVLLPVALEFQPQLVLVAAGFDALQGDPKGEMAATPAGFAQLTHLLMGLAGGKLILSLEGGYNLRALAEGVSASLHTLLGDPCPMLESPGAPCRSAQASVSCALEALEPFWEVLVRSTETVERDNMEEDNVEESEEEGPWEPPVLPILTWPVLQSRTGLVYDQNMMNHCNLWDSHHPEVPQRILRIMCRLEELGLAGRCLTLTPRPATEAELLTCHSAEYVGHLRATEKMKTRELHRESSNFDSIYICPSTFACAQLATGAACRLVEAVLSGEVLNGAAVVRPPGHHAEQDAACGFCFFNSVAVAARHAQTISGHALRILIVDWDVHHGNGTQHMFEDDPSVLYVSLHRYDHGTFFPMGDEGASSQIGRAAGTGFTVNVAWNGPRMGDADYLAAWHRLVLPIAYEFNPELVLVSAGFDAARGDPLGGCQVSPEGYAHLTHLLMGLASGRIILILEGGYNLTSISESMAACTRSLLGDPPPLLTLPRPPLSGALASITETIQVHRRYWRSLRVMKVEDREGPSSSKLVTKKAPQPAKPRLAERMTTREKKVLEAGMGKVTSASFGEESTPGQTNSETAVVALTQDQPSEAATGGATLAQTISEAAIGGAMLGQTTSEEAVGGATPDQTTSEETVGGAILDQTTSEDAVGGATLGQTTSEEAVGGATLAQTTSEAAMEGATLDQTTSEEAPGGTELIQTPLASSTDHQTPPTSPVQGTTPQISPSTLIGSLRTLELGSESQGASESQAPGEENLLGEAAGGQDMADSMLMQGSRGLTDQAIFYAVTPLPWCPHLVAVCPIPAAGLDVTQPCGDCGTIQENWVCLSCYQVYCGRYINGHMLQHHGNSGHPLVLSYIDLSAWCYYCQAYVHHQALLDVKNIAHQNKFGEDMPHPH
Experimental: (§1) Then, 0.3 μg of enzyme and 10 μM of substrate per well were added, reacted at 30° C. for 60 minutes. Thereto, Fluor de Lys® Developer II (BML-KI176) was added and reacted for 30 minutes. […] From the data, the respective IC50 were calculated by GraphPad Prism 4.0 program.

Human recombinant HDAC1 = target: T2, Human recombinant HDAC1 (Homo sapiens, UniProt Q13547); assay: HDAC enzyme activity test, HDAC1; type: biochemical; details: Table 12; read-out: Inhibition ability (IC50) HDAC1
T2 construct: purchased Enzo Life Science Co. (named for the kit; assigned to the enzyme from the BML- catalogue prefix) BML-SE456
T2 sequence (Q13547 whole entry): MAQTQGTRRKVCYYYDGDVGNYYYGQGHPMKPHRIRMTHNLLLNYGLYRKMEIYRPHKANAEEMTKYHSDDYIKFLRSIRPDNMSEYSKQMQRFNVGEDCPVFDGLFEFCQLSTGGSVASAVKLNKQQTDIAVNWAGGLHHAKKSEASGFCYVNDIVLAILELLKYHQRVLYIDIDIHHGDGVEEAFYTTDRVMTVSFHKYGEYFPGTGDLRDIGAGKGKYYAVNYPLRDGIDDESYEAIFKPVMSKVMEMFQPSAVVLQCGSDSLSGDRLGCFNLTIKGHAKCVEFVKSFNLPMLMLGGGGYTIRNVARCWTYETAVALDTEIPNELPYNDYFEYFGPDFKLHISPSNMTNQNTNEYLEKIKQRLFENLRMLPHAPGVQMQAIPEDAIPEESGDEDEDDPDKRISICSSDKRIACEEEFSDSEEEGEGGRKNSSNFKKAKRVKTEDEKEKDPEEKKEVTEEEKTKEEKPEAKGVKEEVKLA
Experimental: as §1

For CC(C)(C)OC(=O)N1CCN(CC2CCc3c(c4cc(F)ccc4n3Cc3ccc(C(=O)NO)cc3)C2=O)CC1 (stereo not shown) [Compound 144, tert-butyl 4-((6-fluoro-9-(4-(hydroxycarbamoyl)benzyl)-4-oxo-2,3,4,9-tetrahydro-1H-carbazol-3-yl)methyl)piperazin-1-carboxylate], the “Selectivity for HDAC6, HD1/HD6” value (human recombinant HDAC6) was 310.9, the IC50 (human recombinant HDAC6) was 0.0271 µM and the IC50 (Human recombinant HDAC1) was 8.41 µM.
With CC1(C)CC(=O)c2c(n(CCCCCC(=O)NO)c3ccc(Br)cc23)C1 [Compound 40, 6-(6-bromo-2,2-dimethyl-4-oxo-1,2,3,4-tetrahydrocarbazol-9-yl)-N-hydroxyhexanamide] the “Selectivity for HDAC6, HD1/HD6” value (human recombinant HDAC6) was 75.5, the IC50 (human recombinant HDAC6) was 0.117 µM and the IC50 (Human recombinant HDAC1) was 8.88 µM.
In the case of CCN1CCN(CC2CCc3c(c4cc(F)ccc4n3Cc3ccc(C(=O)NO)cc3)C2=O)CC1 (stereo not shown) [Compound 189, 4-((3-((4-ethylpiperazin-1-yl)methyl)-6-fluoro-4-oxo-1,2,3,4-tetrahydrocarbazol-9-yl)methyl)-N-hydroxybenzamide], the “Selectivity for HDAC6, HD1/HD6” value (human recombinant HDAC6) is reported as 193.5, the IC50 (human recombinant HDAC6) is reported as 0.0115 µM and the IC50 (Human recombinant HDAC1) is reported as 2.23 µM.
In the case of CN1CCCN(CCN2CCc3c(c4cc(F)ccc4n3Cc3ccc(C(=O)NO)cc3)C2=O)CC1 [Compound 291, 4-((8-fluoro-2-(2-(4-methyl-1,4-diazepan-1-yl)ethyl)-1-oxo-1,2,3,4-tetrahydropyrido[4,3-b]indol-5-yl)methyl)-N-hydroxybenzamide], the “Selectivity for HDAC6, HD1/HD6” value (human recombinant HDAC6) is reported as 426.3, the IC50 (human recombinant HDAC6) is reported as 0.0186 µM and the IC50 (Human recombinant HDAC1) is reported as 7.92 µM.
In the case of CC(C)N1CCN(CC2CCc3c(c4ccccc4n3Cc3ccc(C(=O)NO)cc3)C2=O)CC1 (stereo not shown) [Compound 113, N-hydroxy-4-((3-((4-isopropylpiperazin-1-yl)methyl)-4-oxo-1,2,3,4-tetrahydrocarbazol-9-yl)methyl)benzamide], the “Selectivity for HDAC6, HD1/HD6” value (human recombinant HDAC6) is reported as 287.1, the IC50 (human recombinant HDAC6) is reported as 0.0085 µM and the IC50 (Human recombinant HDAC1) is reported as 2.44 µM.
CC(C)N1CCN(CC2CCc3c(c4cc(F)ccc4n3Cc3ccc(C(=O)NO)cc3)C2=O)CC1 (stereo not shown) [Compound 188, 4-((6-fluoro-3-((4-isopropylpiperazin-1-yl)methyl)-4-oxo-1,2,3,4-tetrahydrocarbazol-9-yl)methyl)-N-hydroxybenzamide] was tested, and the “Selectivity for HDAC6, HD1/HD6” value (human recombinant HDAC6) was 49.9, the IC50 (human recombinant HDAC6) was 0.0453 µM and the IC50 (Human recombinant HDAC1) was 2.26 µM.
In the case of CC1(C)CC(=O)c2c(n(CCCCCC(=O)NO)c3c(Cl)ccc(Cl)c23)C1 [Compound 48, 6-(1,4-dichloro-7,7-dimethyl-5-oxo-5,6,7,8-tetrahydrocarbazol-9-yl)-N-hydroxyhexanamide], the “Selectivity for HDAC6, HD1/HD6” value (human recombinant HDAC6) is reported as 30.1, the IC50 (human recombinant HDAC6) is reported as 0.145 µM and the IC50 (Human recombinant HDAC1) is reported as 4.37 µM.
For CC(C)(C)OC(=O)N1CCN(CC2CCc3c(c4ccccc4n3Cc3ccc(C(=O)NO)cc3)C2=O)CC1 (stereo not shown) [Compound 140, tert-butyl 4-((9-(4-(hydroxycarbamoyl)benzyl)-4-oxo-2,3,4,9-tetrahydro-1H-carbazol-3-yl)methyl)piperazine-1-carboxylate], the “Selectivity for HDAC6, HD1/HD6” value (human recombinant HDAC6) was 325.2, the IC50 (human recombinant HDAC6) was 0.0181 µM and the IC50 (Human recombinant HDAC1) was 5.9 µM.
With O=C(NO)c1ccc(Cn2c3c(c4ccccc42)C(=O)C(CN2CCC(F)(F)C2)CC3)cc1 (stereo not shown) [Compound 123, 4-((3-((3,3-difluoropyrrolidin-1-yl)methyl)-4-oxo-1,2,3,4-tetrahydrocarbazol-9-yl)methyl)-N-hydroxybenzamide] the “Selectivity for HDAC6, HD1/HD6” value (human recombinant HDAC6) was 539.8, the IC50 (human recombinant HDAC6) was 0.00661 µM and the IC50 (Human recombinant HDAC1) was 3.57 µM.
With O=C(CCCCCCn1c2c(c3cc(F)ccc31)C(=O)CCC2)NO [Compound 325, 7-(3-fluoro-5-oxo-5,6,7,8-tetrahydrocarbazol-9-yl)-N-hydroxyheptanamide] the “Selectivity for HDAC6, HD1/HD6” value (human recombinant HDAC6) was 31.3, the IC50 (human recombinant HDAC6) was 0.003 µM and the IC50 (Human recombinant HDAC1) was 0.0938 µM.
Cc1cn(Cc2ccc(C(=O)NO)cc2)c2c1C(=O)CC(C)(C)C2 [Compound 136, N-hydroxy-4-((3,6,6-trimethyl-4-oxo-4,5,6,7-tetrahydro-1H-indol-1-yl)methyl)benzamide] was tested, and the “Selectivity for HDAC6, HD1/HD6” value (human recombinant HDAC6) was 380.3, the IC50 (human recombinant HDAC6) was 0.00858 µM and the IC50 (Human recombinant HDAC1) was 3.26 µM.
Cc1c2c(n(CCCCCCC(=O)NO)c1C)CCCC2=O [Compound 328, 7-(2,3-dimethyl-4-oxo-4,5,6,7-tetrahydro-1H-indol-1-yl)-N-hydroxyheptanamide] was tested, and the “Selectivity for HDAC6, HD1/HD6” value (human recombinant HDAC6) was 145.1, the IC50 (human recombinant HDAC6) was 0.0221 µM and the IC50 (Human recombinant HDAC1) was 3.21 µM.
CC1(C)CC(=O)c2c(n(CCCCCCC(=O)NO)c3ccccc23)C1 [Compound 20, 7-(2,2-dimethyl-4-oxo-1,2,3,4-tetrahydrocarbazol-9-yl)-N-hydroxyheptanamide] was tested, and the “Selectivity for HDAC6, HD1/HD6” value (human recombinant HDAC6) was 16.8, the IC50 (human recombinant HDAC6) was 0.00744 µM and the IC50 (Human recombinant HDAC1) was 0.125 µM.
For O=C(NO)c1ccc(Cn2c3c(c4cc(F)ccc42)C(=O)N(CCN2CCC[C@H]2CO)CC3)cc1 [Compound 290, (S)-4-((8-fluoro-2-(2-(2-(hydroxymethyl)pyrrolidin-1-yl)ethyl)-1-oxo-1,2,3,4-tetrahydropyrido[4,3-b]indol-5-yl)methyl)-N-hydroxybenzamide], the “Selectivity for HDAC6, HD1/HD6” value (human recombinant HDAC6) was 2925.1, the IC50 (human recombinant HDAC6) was 0.00219 µM and the “selectivity for HDAC6 over HDAC1” value (human recombinant HDAC6; from the data of Table 12) was “more than 2,900 times”. It also gave an IC50 (Human recombinant HDAC1) of 6.41 µM.
In the case of CC1CN(CC2CCc3c(c4ccccc4n3Cc3ccc(C(=O)NO)cc3)C2=O)CC(C)O1 (stereo not shown) [Compound 110, 4-((3-((2,6-dimethylmorpholino)methyl)-4-oxo-1,2,3,4-tetrahydrocarbazol-9-yl)methyl)-N-hydroxybenzamide], the “Selectivity for HDAC6, HD1/HD6” value (human recombinant HDAC6) is reported as 80, the IC50 (human recombinant HDAC6) is reported as 0.0112 µM and the IC50 (Human recombinant HDAC1) is reported as 0.896 µM.
Cc1c2c(n(Cc3ccc(C(=O)NO)cc3)c1C)CCC(CN1CCOCC1)C2=O (stereo not shown) [Compound 268, 4-((2,3-dimethyl-5-(morpholinomethyl)-4-oxo-4,5,6,7-tetrahydroindol-1-yl)methyl)-N-hydroxybenzamide] was tested, and the “Selectivity for HDAC6, HD1/HD6” value (human recombinant HDAC6) was 448.4, the IC50 (human recombinant HDAC6) was 0.0135 µM and the IC50 (Human recombinant HDAC1) was 6.05 µM.
For Cc1nccn1CC1C(=O)c2c(n(Cc3ccc(C(=O)NO)cc3)c3ccc(F)cc23)CC1(C)C (stereo not shown) [Compound 192, 4-((6-fluoro-2,2-dimethyl-3-((2-methyl-1H-imidazol-1-yl)methyl)-4-oxo-1,2,3,4-tetrahydrocarbazol-9-yl)methyl)-N-hydroxybenzamide], the “Selectivity for HDAC6, HD1/HD6” value (human recombinant HDAC6) was 2546.4, the IC50 (human recombinant HDAC6) was 0.0018 µM and the IC50 (Human recombinant HDAC1) was 4.61 µM.
In the case of O=C(NO)c1ccc(Cn2c3c(c4cc(F)ccc42)C(=O)C(CN2CC(F)(F)C2)CC3)cc1 (stereo not shown) [Compound 145, 4-((3-((3,3-difluoroazetidin-1-yl)methyl)-6-fluoro-4-oxo-1,2,3,4-tetrahydrocarbazol-9-yl)methyl)-N-hydroxybenzamide], the “Selectivity for HDAC6, HD1/HD6” value (human recombinant HDAC6) is reported as 925.1, the IC50 (human recombinant HDAC6) is reported as 0.0078 µM and the IC50 (Human recombinant HDAC1) is reported as 7.23 µM.
With CC1(C)CC(=O)c2c(n(CCCCCC(=O)NO)c3c(Cl)cc(Cl)cc23)C1 [Compound 47, 6-(1,3-dichloro-7,7-dimethyl-5-oxo-5,6,7,8-tetrahydrocarbazol-9-yl)-N-hydroxyhexanamide] the “Selectivity for HDAC6, HD1/HD6” value (human recombinant HDAC6) was 6.9, the IC50 (human recombinant HDAC6) was 0.421 µM and the IC50 (Human recombinant HDAC1) was 2.91 µM.
In the case of CC1(C)CC(=O)c2c(n(Cc3ccc(C(=O)NO)cc3)c3cccc(Br)c23)C1 [Compound 53, 4-((5-bromo-2,2-dimethyl-4-oxo-1,2,3,4-tetrahydrocarbazol-9-yl)methyl)-N-hydroxybenzamide], the “Selectivity for HDAC6, HD1/HD6” value (human recombinant HDAC6) is reported as 88.7, the IC50 (human recombinant HDAC6) is reported as 0.0649 µM and the IC50 (Human recombinant HDAC1) is reported as 5.76 µM.
In the case of CN1CCN(CC2CCc3c(c4ccccc4n3Cc3ccc(C(=O)NO)cc3)C2=O)CC1 (stereo not shown) [Compound 111, N-hydroxy-4-((3-((4-methylpiperazin-1-yl)methyl)-4-oxo-1,2,3,4-tetrahydrocarbazol-9-yl)methyl)benzamide], the “Selectivity for HDAC6, HD1/HD6” value (human recombinant HDAC6) is reported as 338.2, the IC50 (human recombinant HDAC6) is reported as 0.0122 µM and the IC50 (Human recombinant HDAC1) is reported as 4.14 µM.
CC1(C)CC(=O)c2c(n(CCCCCC(=O)NO)c3cc(Br)ccc23)C1 [Compound 41, 6-(7-bromo-2,2-dimethyl-4-oxo-1,2,3,4-tetrahydrocarbazol-9-yl)-N-hydroxyhexanamide] was tested, and the “Selectivity for HDAC6, HD1/HD6” value (human recombinant HDAC6) was 50.7, the IC50 (human recombinant HDAC6) was 0.00195 µM and the IC50 (Human recombinant HDAC1) was 0.0988 µM.

From US20140315889A1, “HYDROXAMATE DERIVATIVES FOR HDAC INHIBITOR, AND THE PHARMACEUTICAL COMPOSITION COMPRISING THEREOF” (CHONG KUN DANG PHARMACEUTICAL CORP., priority 2011, published 2014)
